# Test results published in US10981879B2, “Thioether triazolopyridine and triazolopyrimidine inhibitors of myeloperoxidase” (BRISTOL-MYERS SQUIBB COMPANY, priority 2014, dated 2021).
# Biological target: myeloperoxidase (MPO) (Homo sapiens (Human), UniProt P05164)
# Experiment: MPO chlorination assay (APF)
# Type: biochemical
# Details: MPO chlorination assay, ranges given; read-out: MPO chlorination assay IC50
# Procedure: MPO chlorination activity was measured in 100 mM KPi (pH 7.4) by utilizing the non-fluorescent reagent Aminophenyl fluorescein (APF, Invitrogen catalog #A36003). APF is cleaved by (—OCl) to yield the fluorescent compound fluorescein. Reactions were carried out in 50 μL total volume by adding a 25 μL mixture of 200 pM myeloperoxidase and 120 mM NaCl to 100 nL inhibitor in 100% DMSO in a 384 well, non-binding surface clear bottom plate (CORNING® #3655). Enzyme, inhibitor, and chloride were preincubated for ten minutes at rt.
# After the ten minute preincubation, 25 μL of an APF mixture containing […], 120 mM NaCl and 10 μM H2O2 was added to the plate using the internal dispensing system of a Hammatsu FDSS 6000. Kinetic determinations were carried out immediately on the FDSS 6000 (3 minute kinetic read, 1 read every second, ex: 485 nm, em: 535 nm). IC50 values for inhibitors were calculated by taking the slope of the linear portion of the kinetic measurement (20 seconds to ˜80-120 secs). […]
# [formula] where A=minimal Y value (activity level of inhibited sample), B=maximal Y value (activity level of uninhibited sample), C=Log IC50, D=Hill Slope, x=concentration of inhibitor. EPX Bromination Assay
# Chain of myeloperoxidase (MPO) (P05164 49-745): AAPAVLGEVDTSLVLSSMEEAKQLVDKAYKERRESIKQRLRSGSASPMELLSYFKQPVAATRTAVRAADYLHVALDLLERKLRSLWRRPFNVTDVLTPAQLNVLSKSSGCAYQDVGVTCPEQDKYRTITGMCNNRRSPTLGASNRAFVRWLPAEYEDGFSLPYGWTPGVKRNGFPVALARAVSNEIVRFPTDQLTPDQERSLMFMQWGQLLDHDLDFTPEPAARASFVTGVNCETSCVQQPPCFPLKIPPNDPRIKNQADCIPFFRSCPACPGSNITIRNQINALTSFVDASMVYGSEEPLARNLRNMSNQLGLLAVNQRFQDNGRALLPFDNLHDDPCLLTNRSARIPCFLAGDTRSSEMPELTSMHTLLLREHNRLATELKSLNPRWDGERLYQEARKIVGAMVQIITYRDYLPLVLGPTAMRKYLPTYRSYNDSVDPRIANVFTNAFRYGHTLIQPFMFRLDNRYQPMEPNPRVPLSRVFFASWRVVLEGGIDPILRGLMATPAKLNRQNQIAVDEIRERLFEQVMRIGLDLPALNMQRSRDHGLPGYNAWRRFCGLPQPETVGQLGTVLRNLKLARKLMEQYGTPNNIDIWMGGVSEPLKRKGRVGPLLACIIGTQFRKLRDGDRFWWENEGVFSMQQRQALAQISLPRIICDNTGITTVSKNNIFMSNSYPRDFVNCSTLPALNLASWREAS
row,SMILES,IC50 [nM]
1,"Nc1cc(SCc2ccccc2C(F)(F)F)c2nn[nH]c2n1 [Example 5, 7-((2-(trifluoromethyl)benzyl)thio)-3H-[1,2,3] triazolo[4,5-b]pyridin-5-amine]",≤ 60
2,"COC(=O)c1ccc2nc(CSc3cc(N)nc4[nH]nnc34)ccc2c1 [Example 31, methyl 2-(((5-amino-3H-[1,2,3]triazolo[4,5-b]pyridin-7-yl)thio)methyl)quinoline-6-carboxylate]",200 to 1000
3,"Nc1cc(SCc2cc(Cl)cc(S(N)(=O)=O)c2Cl)c2nn[nH]c2n1 [Example 118, 3-(((5-amino-3H-[1,2,3]triazolo[4,5-b]pyridin-7-yl)thio)methyl)-2,5-dichlorobenzenesulfonamide]",≤ 60
4,"Nc1cc(SCc2cn(-c3ccccc3)nc2C(F)F)c2nn[nH]c2n1 [Example 138, 7-(((3-(difluoromethyl)-1-phenyl-1H-pyrazol-4-yl)methyl)thio)-3H-[1,2,3]triazolo[4,5-b] pyridin-5-amine]",≤ 60
5,"Nc1cc(SCc2ccc(Cl)cc2)c2nn[nH]c2n1 [Example 8, 7-((4-chlorobenzyl)thio)-3H-[1,2,3]triazolo [4,5-b]pyridin-5-amine]",≤ 60
6,"CCn1nc(C(F)(F)F)cc1CSc1cc(N)nc2[nH]nnc12 [Example 36, 7-(((1-ethyl-3-(trifluoromethyl)-1H-pyrazol-5-yl)methyl)thio)-3H-[1,2,3]triazolo[4,5-b] pyridin-5-amine]",200 to 1000
7,N#Cc1ccc(OC(F)F)cc1CSc1cc(N)nc2[nH]nnc12 [Example 109],≤ 60
8,"CN(C)CCNC(=O)c1ccccc1-n1cc(CSc2cc(N)nc3[nH]nnc23)c(C(F)F)n1 [Example 151, 2-(4-(((5-amino-3H-[1,2,3]triazolo[4,5-b]pyridin-7-yl)thio)methyl)-3-(difluoromethyl)-1H-pyrazol-1-yl)-N-(2-(dimethylamino)ethyl) benzamide]",≤ 60
9,"CS(=O)(=O)c1cc(Br)cc(F)c1CSc1cc(N)nc2[nH]nnc12 [Example 42, 7-((4-bromo-2-fluoro-6-(methylsulfonyl)benzyl)thio)-3H-[1,2,3]triazolo[4,5-b]pyridin-5-amine]",≤ 60
10,"CC(Sc1cc(N)nc2[nH]nnc12)c1ccccc1C(F)(F)F (centres unmarked) [Example 30, 7-((1-(2-(trifluoromethyl)phenyl)ethyl)thio)-3H-[1,2,3]triazolo[4,5-b]pyridin-5-amine]",60 to 200
11,"N#Cc1cccc(CSc2cc(N)nc3[nH]nnc23)c1 [Example 91, 3-(((5-amino-3H-[1,2,3]triazolo[4,5-b]pyridin-7-yl)thio)methyl)benzonitrile]",≤ 60
12,"N#Cc1ccc(C2CC2)cc1CSc1cc(N)nc2[nH]nnc12 [Example 87, 2-(((5-amino-3H-[1,2,3]triazolo[4,5-b]pyridin-7-yl)thio)methyl)-4-cyclopropylbenzonitrile]",≤ 60
13,"CS(=O)(=O)c1cc(Cl)ccc1CSc1cc(N)nc2[nH]nnc12 [Example 18, 7-((4-chloro-2-(methylsulfonyl)benzyl)thio)-3H-[1,2,3]triazolo[4,5-b]pyridin-5-amine]",≤ 60
14,"CC1(NC(=O)c2ccc(F)c(CSc3cc(N)nc4[nH]nnc34)c2)CC1 [Example 55, 3-(((5-amino-3H-[1,2,3]triazolo[4,5-b]pyridin-7-yl)thio)methyl)-4-fluoro-N-(1-methylcyclopropyl) benzamide]",200 to 1000
15,"Nc1cc(SCc2ccccc2CS(=O)(=O)c2ccccc2)c2nn[nH]c2n1 [Example 35, 7-((2-((phenylsulfonyl)methyl)benzyl)thio)-3H-[1,2,3]triazolo[4,5-b]pyridin-5-amine]",60 to 200
16,"Nc1cc(SCc2cccc(CO)n2)c2nn[nH]c2n1 [Example 25, (6-(((5-amino-3H-[1,2,3]triazolo[4,5-b]pyridin-7-yl)thio)methyl)pyridin-2-yl) methanol]",60 to 200
17,Nc1cc(SCc2cn(-c3ccncc3)nc2C(F)F)c2nn[nH]c2n1 [Example 142],≤ 60
18,"CN(C)Cc1cccc(-n2cc(CSc3cc(N)nc4[nH]nnc34)c(C(F)F)n2)c1 [Example 148, 7-(((3-(difluoromethyl)-1-(3-((dimethylamino)methyl)phenyl)-1H-pyrazol-4-yl)methyl)thio)-3H-[1,2,3]triazolo [4,5-b]pyridin-5-amine]",≤ 60
19,"Nc1cc(SCc2cc(F)ccc2F)c2nn[nH]c2n1 [Example 19, 7-((2,5-difluorobenzyl)thio)-3H-[1,2,3]triazolo[4,5-b] pyridin-5-amine]",≤ 60
20,"N#Cc1cccc(Cl)c1CSc1cc(N)nc2[nH]nnc12 [Example 117, 2-(((5-amino-3H-[1,2,3]triazolo[4,5-b]pyridin-7-yl)thio)methyl)-3-chlorobenzonitrile]",≤ 60
21,"Cc1cc(CSc2cc(N)nc3[nH]nnc23)c(Cl)nc1Cl [Example 24, 7-(((2,6-dichloro-5-methylpyridin-3-yl)methyl)thio)-3H-[1,2,3]triazolo[4,5-b]pyridin-5-amine]",60 to 200

# Further lines, results first:
row,IC50 [nM],SMILES
1,60 to 200,"Nc1cc(SC(CNCc2ccccc2)c2ccccc2)c2nn[nH]c2n1 (centres unmarked) [Example 128, 7-((2-(Benzylamino)-1-phenylethyl)thio)-3H-[1,2,3]triazolo[4,5-b]pyridin-5-amine]"
2,200 to 1000,"Nc1cc(SC(C(=O)NCc2ccccc2)c2ccccc2)c2nn[nH]c2n1 (centres unmarked) [Example 127, 2-((5-Amino-3H-[1,2,3]triazolo[4,5-b]pyridin-7-yl)thio)-N-benzyl-2-phenylacetamide]"
3,200 to 1000,"N#Cc1cccc(-n2cccn2)c1CSc1cc(N)nc2[nH]nnc12 [Example 129, 2-(((5-Amino-3H-[1,2,3]triazolo[4,5-b]pyridin-7-yl)thio)methyl)-3-(1H-pyrazol-1-yl)benzonitrile]"
4,200 to 1000,"N#Cc1cccc(-n2ccnc2)c1CSc1cc(N)nc2[nH]nnc12 [Example 131, 2-(((5-amino-3H-[1,2,3]triazolo[4,5-b]pyridin-7-yl)thio)methyl)-3-(1H-imidazol-1-yl)benzonitrile]"
5,60 to 200,"Cc1nn(C2CC2)c(C)c1CSc1cc(N)nc2[nH]nnc12 [Example 81, 7-(((1-cyclopropyl-3,5-dimethyl-1H-pyrazol-4-yl)methyl)thio)-3H-[1,2,3] triazolo[4,5-b]pyridin-5-amine]"
6,60 to 200,"CN(C)CCNC(=O)c1cccc(-n2cc(CSc3cc(N)nc4[nH]nnc34)c(C(F)F)n2)c1 [Example 149, 3-(4-(((5-amino-3H-[1,2,3]triazolo[4,5-b]pyridin-7-yl)thio)methyl)-3-(difluoromethyl)-1H-pyrazol-1-yl)-N-(2-(dimethylamino)ethyl) benzamide]"
7,60 to 200,"CS(=O)(=O)c1cccc(Cl)c1CSc1cc(N)nc2[nH]nnc12 [Example 102, 7-((2-chloro-6-(methylsulfonyl)benzyl)thio)-3H-[1,2,3]triazolo[4,5-b]pyridin-5-amine]"
8,60 to 200,"Nc1cc(SCc2ccc(S(N)(=O)=O)cc2Cl)c2nn[nH]c2n1 [Example 119, 4-(((5-amino-3H-[1,2,3]triazolo[4,5-b]pyridin-7-yl)thio)methyl)-3-chlorobenzenesulfonamide]"
9,60 to 200,"Nc1cc(SCc2cc(Cl)ccc2S(=O)(=O)Cc2ccccc2)c2nn[nH]c2n1 [Example 61, 7-((2-(benzylsulfonyl)-5-chlorobenzyl)thio)-3H-[1,2,3]triazolo[4,5-b]pyridin-5-amine]"
10,200 to 1000,"Nc1nc(SCc2ccccc2-n2cccn2)c2nn[nH]c2n1 [Example 158, 7-((2-(1H-pyrazol-1-yl)benzyl)thio)-3H-[1,2,3] triazolo[4,5-d]pyrimidin-5-amine]"
11,200 to 1000,"Cn1ncc2c(CSc3nc(N)nc4[nH]nnc34)cccc21 [Example 162, 7-(((1-methyl-1H-indazol-4-yl)methyl)thio)-3H-[1,2,3]triazolo[4,5-d] pyrimidin-5-amine]"
12,60 to 200,"Cn1nc(CSc2cc(N)nc3[nH]nnc23)cc1-c1ccccc1 [Example 103, 7-(((1-methyl-5-phenyl-1H-pyrazol-3-yl)methyl)thio)-3H-[1,2,3]triazolo[4,5-b] pyridin-5-amine]"
13,200 to 1000,"Cn1nc(C2CC2)cc1CSc1nc(N)nc2[nH]nnc12 [Example 165, 7-(((3-cyclopropyl-1-methyl-1H-pyrazol-5-yl)methyl)thio)-3H-[1,2,3] triazolo[4,5-d]pyrimidin-5-amine]"
14,200 to 1000,"CN(C)c1cccc(-n2cc(CSc3cc(N)nc4[nH]nnc34)c(C(F)(F)F)n2)n1 [Example 140, 7-(((1-(6-(dimethylamino)pyridin-2-yl)-3-(trifluoromethyl)-1H-pyrazol-4-yl)methyl)thio)-3H-[1,2,3]triazolo [4,5-b]pyridin-5-amine]"
15,60 to 200,"CCOC(=O)C(Sc1cc(N)nc2[nH]nnc12)c1ccccc1 (centres unmarked) [Example 106, ethyl 2-((5-amino-3H-[1,2,3]triazolo[4,5-b]pyridin-7-yl)thio)-2-phenylacetate]"
16,60 to 200,"N#Cc1c(Cl)cccc1CSc1cc(N)nc2[nH]nnc12 [Example 75, 2-(((5-amino-3H-[1,2,3]triazolo[4,5-b]pyridin-7-yl)thio)methyl)-6-chlorobenzonitrile]"
17,60 to 200,"Nc1cc(SCc2ccccc2CN2CCC2)c2nn[nH]c2n1 [Example 95, 7-((2-(azetidin-1-ylmethyl)benzyl)thio)-3H-[1,2,3] triazolo[4,5-b]pyridin-5-amine]"
